Data as given in patent publication US8921383B2, “Thiazolopyrimidine compounds” (Hoffmann-La Roche Inc., priority 2011, dated 2014).

Target: T1, purified recombinant human SYK360-635 (Homo sapiens, UniProt P43405)
T1 construct: truncated construct of Spleen Tyrosine Kinase aa 360-635; GST; made in house
Assay: SYK kinase assay: 33P γATP incorporation into biotinylated peptide substrate, IC50 determination
Format: biochemical
Details: SYK 0.5 nM, ATP 20 μM, DYE peptide 5 μM, 30° C. 15 min; read-out: IC50 h-syk-gst-sf9-c (inactive-dephosphorylated)
Description: Determination of IC50 of Spleen Tyrosine Kinase (SYK) Inhibition:
SYK kinase assay is a standard kinase assay adapted to a 96 well plate format. This assay is performed in 96-well format for IC50 determination with […] which represented 10 half log dilutions and a 40 μL reaction volume. The assay measures the incorporation of radiolabeled ^33P γATP into an N-terminally biotinylated peptide substrate, derived from naturally occurring phosphoacceptor consensus sequence (Biotin-11aa DY*E). Phosphorylated products were detected upon termination of reactions with EDTA and the addition of Streptavidin coated beads.
Assay plates: 96-well MultiScreen 0.65 um filter plates (Millipore Cat. No.: MADVNOB10)
BSA: Bovine Serum Albumin Fraction V, fatty acid free (Roche Diagnostics GmbH, Cat. No. 9100221) diluted to a final concentration of 0.1%
Assay Dilution Buffer (ADB): 50 mM HEPES, 0.1 mM EGTA, 0.1 mM Na Vanadate, 0.1 mM β-glycerophosphate, 10 mM MgCl2, 1 mM DTT, 0.1% BSA, pH 7.5
Bead wash buffer: 10 g/L PBS (Phosphate buffered saline) with 2M NaCl+1% phosphoric acid.
DMSO and the mixture was incubated for 10 min at RT.
The kinase reaction was initiated by the addition of 10 μL 4× substrate cocktail containing the DYE peptide substrate [0 or 5 μM], ATP [20 μM] and ^33PγATP [2 μCi/r×n]. After incubation at 30° C. for 15 min, the reaction was terminated by the transfer of 25 μL of the reaction sample to a 96 well 0.65 μm Millipore MADVNOB membrane/plate containing 200 μL 5 mM EDTA and 20% Streptavidine coated beads in PBS.
After the last wash membrane/plates were transferred to an adaptor plate, heat dried for 15 min at 60° C., and 50 μL scintillation cocktail was added to each well and 4 h later the amount of radioactivity was counted in a top counter.

IC50 | SMILES
164 nM | COc1ccc(Nc2nc(N3CCCC(C(=O)Nc4ccc(C(=O)O)c(OC)c4)C3)nc3scnc23)cc1OC (stereo not shown) [Compound I-43, 4-({1-[7-(3,4-Dimethoxy-phenylamino)-thiazolo[5,4-d]pyrimidin-5-yl]-piperidine-3-carbonyl}-amino)-2-methoxy-benzoic acid]
18 nM | COc1ccc(Nc2nc(-c3cccc(CNc4ccc(C(=O)O)cc4)c3)nc3scnc23)cc1OC [Compound I-30, 4-(3-(7-(3,4-Dimethoxyphenylamino)thiazolo[5,4-d]pyrimidin-5-yl)benzylamino)benzoic acid]
912 nM | COc1ccc(Nc2nc(N3CCC(NC(=O)c4ccc(C(N)=O)nc4)C3)nc3scnc23)cc1OC (stereo not shown) [Compound I-37, N5-(1-(7-(3,4-Dimethoxyphenylamino)thiazolo[5,4-d]pyrimidin-5-yl)pyrrolidin-3-yl)pyridine-2,5-dicarboxamide]
53 nM | COc1ccc(Nc2nc(-c3cccc(C(=O)Nc4ccc(C5SC(=O)NC5=O)cc4)c3)nc3scnc23)cc1OC (stereo not shown) [Compound I-63, 3-[7-(3,4-Dimethoxy-phenylamino)-thiazolo[5,4-d]pyrimidin-5-yl]-N-[4-(2,4-dioxo-thiazolidin-5-yl)-phenyl]-benzamide]
